Series [1] in a line: Freeze/thaw stability in human urine. It counts as physicochemical. The conditions noted are these: stored at −70° C. and thawed, repeated twice, 0.3, 19 and 38 μg/ml. The protocol:
The applicability of the testing methodology to analyze samples stored under different conditions was analyzed. First, to assess short-term stability of DMB in human urine, samples at 0.3, 19 and 38 μg/ml, 92.3% of DMB were maintained unextracted at room temperature and at bench-top light levels for six hours. […] Second, to assess freeze/thaw stability of DMB in human urine, samples at 0.3, 19 and 38 μg/ml, 92.3% of DMB were stored at −70° C. and thawed. This process was repeated twice and samples after each freezing were analyzed for DMB as described. For each concentration and each freezing/thawing sample, the % CV was no more than 15%.

Series [2] is classed as physicochemical, dog. The settings on record: for Bench top stability, Mean concentration / Bench top stability, RE % (mean vs nominal): dog, 17 h. The protocol:
For the remaining validation tests, a calibration curve and triplicates QCs at the low, mid and high levels were analyzed with each sample set. The following samples were also analyzed either in conjunction with one of the precision and accuracy runs or in one of the additional validation runs: Samples from six lots of control dog plasma for specificity. Two concentration levels of unextracted QC-samples in triplicate (solvent standards) were analyzed for the evaluation of the recovery of sodium 2,2-dimethylbutyrate and DMV in dog plasma. Two levels of QC samples (Low QC and High QC in triplicate) were subjected to three freeze/thaw cycles at approximately −70° C. prior to extraction to evaluate freeze/thaw stability. Two levels of QC samples (Low QC and High QC in triplicate) were placed on the bench top for approximately 17 hours prior to extraction for the evaluation of the bench top stability. Triplicate low QC samples and triplicate high QC samples were stored for one month and three months in a freezer at approximately −70° C., and then extracted and analyzed to evaluate long term stability in dog plasma. Three aliquots of a dilution QC sample diluted 10-fold.
Bench top stability was evaluated at room temperature for approximately 17 hours. Triplicate QC-Low and QC-High samples were extracted and analyzed after these storage conditions. The CV % values for the QC-Low and QC-High stability samples are 3.2% and 3.4%, respectively. To calculate the RE %, the measured mean concentration was compared to the nominal concentration. The RE % values for the QC-Low and QC-High stability samples are 2.1% and −10.7%, respectively.

Series [3] is classed as physicochemical, human. The settings on record: for Bench top stability, Mean concentration / Bench top stability, RE % (mean vs nominal): human, 22.5 h. Here is the method:
The following samples were also analyzed either in conjunction with one of the precision and accuracy runs or in one of the additional validation runs. Samples from six lots of control human plasma for specificity. Samples from six lots of control human plasma fortified with internal standard for specificity. Two concentration levels of unextracted QC-samples in triplicate (solvent standards) were analyzed for the evaluation of the recovery of sodium 2,2-dimethylbutyrate and DMV in human plasma. Two levels of QC samples (Low QC and High QC in triplicate) were subjected to three freeze/thaw cycles at approximately −70° C. prior to extraction to evaluate freeze/thaw stability. […] Triplicate low QC samples and triplicate high QC samples were stored for one month and three months in a freezer at approximately −70° C., and then extracted and analyzed to evaluate long term stability in human plasma. Two levels of extracted QC samples (Low QC and High QC) were re-analyzed after approximately 71 hours in the autosampler at room temperature to evaluate the extract autosampler stability. Two levels of extracted QC samples (Low QC and High QC) were re-analyzed after approximately 8 hours in the freezer at approximately −20° C. to evaluate the extract freeze stability. Three aliquots of a dilution QC sample diluted 10-fold. Triplicate dilutions of the old stock solution (stored at approximately 4° C.) and new stock solutions prepared at intervals of two weeks and one month. Statistical calculations in the report tables were calculated from unrounded concentration values taken directly from the raw data. The concentration values were rounded for display purposes.
Triplicate QC-Low and QC-High samples were extracted and analyzed after these storage conditions. The CV % values for the QC-Low and QC-High stability samples are 7.8% and 2.9%, respectively. To calculate the RE %, the measured mean concentration was compared to the nominal concentration. The RE % values for the QC-Low and QC-High stability samples are 11.8% and −3.4%, respectively.

The nature of series [4]: Stock solution stability at approximately 4° C. (old vs new stock peak areas). It counts as physicochemical. The conditions noted are these: for Stock solution stability, RE % (to New) of old stock peak area: approximately 4° C. Here is the method: The following LC-MS/MS conditions were applied for the analysis of underivatized sodium 2,2-dimethylbutyrate and DMV for stock solution stability analysis (2 to 3.5 month), and system suitability associated with these analyses: The following samples were also analyzed either in conjunction with one of the precision and accuracy runs or in one of the additional validation runs. Samples from six lots of control human plasma for specificity. Samples from six lots of control human plasma fortified with internal standard for specificity. Two concentration levels of unextracted QC-samples in triplicate (solvent standards) were analyzed for the evaluation of the recovery of sodium 2,2-dimethylbutyrate and DMV in human plasma. Two levels of QC samples (Low QC and High QC in triplicate) were subjected to three freeze/thaw cycles at approximately −70° C. prior to extraction to evaluate freeze/thaw stability. Two levels of QC samples (Low QC and High QC in triplicate) were placed on the bench top for approximately 17 hours prior to extraction for the evaluation of the bench top stability. Triplicate low QC samples and triplicate high QC samples were stored for one month and three months in a freezer at approximately −70° C., and then extracted and analyzed to evaluate long term stability in human plasma. Two levels of extracted QC samples (Low QC and High QC) were re-analyzed after approximately 71 hours in the autosampler at room temperature to evaluate the extract autosampler stability. Two levels of extracted QC samples (Low QC and High QC) were re-analyzed after approximately 8 hours in the freezer at approximately −20° C. to evaluate the extract freeze stability. Three aliquots of a dilution QC sample diluted 10-fold. Triplicate dilutions of the old stock solution (stored at approximately 4° C.) and new stock solutions prepared at intervals of two weeks and one month. Statistical calculations in the report tables were calculated from unrounded concentration values taken directly from the raw data. The concentration values were rounded for display purposes. Fresh stock solutions of sodium 2,2-dimethylbutyrate were prepared at intervals of two weeks and 1, 2, 3 and 3.5 months after the initial standard preparation. Similarly, the stability intervals for DMV were two weeks and 1, 2 and 3 months. The initial (or old) stock solutions and the fresh stock solutions were diluted into the calibration standard range and analyzed. The peak areas for the fresh (new) and old standard solutions were compared. Beginning with the 2-month stability analysis, sodium 2,2-dimethylbutyrate and DMV stock solutions were analyzed underivatized. This was done since the peak areas of both sodium 2,2-dimethylbutyrate and DMV varied among replicate derivatized preparations. Analyzing the standard solutions underivatized was a simpler procedure which gave more accurate and precise results

Molecules are shown by their SMILES. Like-named read-outs stand apart in the source and are kept apart here.

`CCC(C)(C)C(=O)[O-].[Na+]` [Sodium 2,2-Dimethylbutyrate]: in series [1], the “% CV after freeze/thaw” value is “no more than 15%”. For the same compound, the “Time stable on bench top” value in series [2] (dog plasma, ambient bench top storage) is “approximately 17 hours”; in series [3] (human plasma, ambient bench top storage), 22.5 h. Besides, the “Bench top stability, Mean concentration” value in series [2] (0.6 μg/mL) came to 0.613 µg/mL; in series [2] (40 μg/mL), 35.7 µg/mL; in series [3] (0.6 μg/mL) it was 0.671 µg/mL; in series [3] (40 μg/mL) it was 38.7 µg/mL. Further, the “Bench top stability, RE % (mean vs nominal)” value in series [2] (0.6 μg/mL) is 2.1%; in series [2] (40 μg/mL), −10.7%; in series [3] (0.6 μg/mL) it was 11.8%; in series [3] (40 μg/mL), −3.4%. Moreover, the “Stock solution stability, RE % (to New) of old stock peak area” value is reported as 10.3% in series [4] (1 Month Interval); 2.2% in series [4] (2 Month Interval, underivatized); −8.6% in series [4] (2 Week Interval); 1.6% in series [4] (3 Month Interval, underivatized); −2.2% in series [4] (~3.5 Month Interval, underivatized). In addition, the “Time stock solutions are stable” value in series [4] (stock solution in acetonitrile/water stored in a refrigerator at approximately 4° C.) is recorded as “at least 3.5 months”.

For the origin of these results see US20110033946A1, “DETECTION OF SHORT-CHAIN FATTY ACIDS IN BIOLOGICAL SAMPLES” (HEMAQUEST PHARMACEUTICALS, INC., priority 2009, published 2011).
